According to patent publication US10308620B2, “Muscarinic M1 receptor positive allosteric modulators” (SUVEN LIFE SCIENCES LIMITED, priority 2015, dated 2019):

Experiments:
rats [1] = assay: Contextual fear conditioning task (scopolamine induced memory deficit); assay type: in vivo, rat; conditions: scopolamine 0.3 mg/kg, s.c.; FIG. 3
Experimental: Contextual Fear Conditioning Task
Experiment was carried out over a period of two days. On day 1, rats were placed in the operant behavior chamber and allowed to acclimatize for 2 minutes. Rats received an unavoidable foot shock (unconditioned stimulus (US): electric shock of 0.5-0.7 mA for 3 sec). Following a 1 minute interval, shocks were repeated to deliver a total of three US. Rats were administered with vehicle or test compound post training. Scopolamine (0.3 mg/kg, s.c.) was administered 120 minutes after training.
On day 2, rats were placed in the operant behavior chamber and total freezing time was scored for a period of 5 minutes.

[2] = target: recombinant human Muscarinic M1 receptor (Homo sapiens (Human), UniProt P11229); assay: Allosteric potency EC50, CHO cells with pCRE-Luc reporter, in presence of EC20 of acetylcholine; assay type: cell-based; conditions: 4 hours
recombinant human Muscarinic M1 receptor, sequence (P11229 whole entry): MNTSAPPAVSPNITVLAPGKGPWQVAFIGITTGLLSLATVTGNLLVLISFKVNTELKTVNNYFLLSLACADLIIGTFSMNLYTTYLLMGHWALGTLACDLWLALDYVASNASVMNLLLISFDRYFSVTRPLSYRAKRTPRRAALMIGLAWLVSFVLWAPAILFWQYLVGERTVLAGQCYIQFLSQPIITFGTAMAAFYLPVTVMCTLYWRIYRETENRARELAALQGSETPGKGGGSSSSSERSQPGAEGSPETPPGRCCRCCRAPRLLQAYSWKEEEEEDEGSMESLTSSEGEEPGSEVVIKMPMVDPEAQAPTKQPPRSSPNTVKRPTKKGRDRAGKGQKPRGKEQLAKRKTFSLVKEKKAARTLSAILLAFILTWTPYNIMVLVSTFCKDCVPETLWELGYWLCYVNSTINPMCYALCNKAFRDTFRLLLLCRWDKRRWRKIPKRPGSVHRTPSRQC
In short: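 Stable CHO cells carrying human M1 receptor and a pCRE-Luc reporter, serum-starved overnight, then exposed to rising compound concentrations plus EC20 acetylcholine in OptiMEM for 4 h at 37 °C. Luciferase read after lysis. EC50 is the concentration giving 50% luciferase stimulation with EC20 acetylcholine present.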

Male Wistar rats = assay: Object recognition task model (time induced memory deficit); assay type: in vivo, rat
Experimental: Object Recognition Task Model
The cognition enhancing properties of compounds of this invention were estimated by using this model.
Male Wistar rats (8-10 weeks old) were used as experimental animals. Four animals were housed in each cage. Animals were kept on 20% food deprivation from a day prior to experimentation. Water was provided ad libitum throughout the experiment. Animals were maintained on a 12 hours light/dark cycle in temperature and humidity controlled room. The experiment was carried out in an open field made up of acrylic. Rats were habituated to individual arenas (open field) for 1 hour in the absence of any objects on day 1.
One group of 12 rats received vehicle and another set of animals received test compounds or test compounds and Donepezil, before the familiar (T1) and choice (T2) trials. During the familiarization phase, (T1), the rats were placed individually in the arena for 3 minutes, in which two identical objects (a1 and a2) were positioned 10 cm from the wall. 24 hours after T1, trial for long-term memory test was performed. The same rats were placed in the same arena as they were placed in T1 trial. During the choice phase (T2) rats were allowed to explore the arena for 3 minutes in presence of a copy of familiar object (a3) and one novel object (b). During the T1 and T2 trial, explorations of each object (defined as sniffing, licking, chewing or having moving vibrissae whilst directing the nose towards the object at a distance of less than 1 cm) were recorded using stopwatch.
T1 is the total time spent exploring the familiar objects (a1+a2).
T2 is the total time spent exploring the familiar object and novel object (a3+b). Discriminative index=Time spent with novel object/(time spent with novel and familiar object).
The object recognition test was performed as described in Behavioural Brain Research, 1988, 31, 47-59.

rats [3] = assay: Modulation of cerebral blood flow in frontal cortex (Laser Doppler); assay type: in vivo, rat; conditions: intravenous, anaesthetized rats; FIG. 6
Experimental: Modulation of Cerebral Blood Flow in Frontal Cortex:
The effect of test compound on modulation of cerebral blood flow was evaluated using rats.
Rats were acclimatized to the laboratory environment for at least 7 days. Rats (300-350 grams) were housed in a group of four in a controlled environment (Temp=21±3° C.; Humidity=30-70%) and maintained on a 12-hour light/dark cycle with lights on at 07:00 AM. Food and water was provided ad libitum.
Rats were anaesthetized with 12% urethane (i.p.). Animal's body core temperature was maintained at 37° C. via a heating pad and rectal temperature probe. A small incision was made at one of the ventral side of the hind limb and the femoral vein was cannulated with PE10 tubing for drug application. Then animal was placed into a stereotaxic frame and a midline incision was made to expose the skull. A burr hole was drilled over the frontal cortex (stereotaxic coordinates 1 mm anterior and 4 mm lateral to bregma). Oxygen was supplied through the nose cone of the seterotaxic apparatus which was connected to the controlled gaseous supplier with a flow of 200 mL/minute. Laser Doppler probe (AD Instruments Inc) was placed over the hole to monitor cerebral blood flow. […] Data obtained was calculated as percent increase relative to resting basal blood flow level. […]

[4] = Rodent brain penetration study; assay type: in vivo; conditions: rat, oral, 3 mg/kg, p.o., male Wistar rats, read-out: Single dose Rat Brain Penetration (Cb/Cp)
Experimental: Rodent Brain Penetration Study
Male Wistar rats (260±40 grams) were used as experimental animals. Three animals were housed in each cage. Animals were given water and food ad libitum throughout the experiment and maintained on a 12 hours light/dark cycle.
Brain penetration was determined in discrete manner in rats. One day prior to dosing day, male Wistar rats were acclimatized and randomly grouped according to their weight. At each time point (0.50, 1 and 2 hours) n=3 animals were used.
The test compounds were suitably preformulated and administered orally at (free base equivalent) 3 mg/kg. Blood samples were removed via cardiac puncture by using isoflurane anesthesia. The animals were sacrificed to collect brain tissue. Plasma was separated and brain samples were homogenized and stored frozen at −20° C. until analysis. The concentrations of the test compounds in plasma and brain were determined using LC-MS/MS method.
The test compounds were quantified in plasma and brain homogenate by qualified LC-MS/MS method using suitable extraction technique. The test compounds were quantified in the calibration range of 1-500 ng/mL in plasma and brain homogenate. Study samples were analyzed using calibration samples in the batch and quality control samples spread across the batch. Extent of brain-plasma ratio was calculated (Cb/Cp).

[5] = 1 mg/kg, p.o., choice trial 24 hours after T1

EC50 [2]: 0.331 µM
Kp [4]: 2.27 ± 0.64
SMILES: O=C(N[C@H]1CCCC[C@@H]1O)C1=CN(Cc2cccc(F)c2F)c2ccccc2O1 [Example 18, N-(cis-1S, 2S-2-Hydroxycyclohexyl)-4-(2,3-difluorobenzyl)-4H-benzo[1,4]oxazine-2-carboxamide]
Effect on scopolamine induced memory deficit (freezing time) (rats [1]): reversed the scopolamine induced memory deficit
Inference (Male Wistar rats; 1 mg/kg, p.o.): Active
Exploration time mean ± S.E.M, Familiar object (Male Wistar rats; [5]): 8.74 ± 1.49 s
Exploration time mean ± S.E.M, Novel object (Male Wistar rats; [5]): 16.47 ± 1.82 s
Procognitive effects (Male Wistar rats; in combination with donepezil, FIGS. 1 and 2): better than the either treatment
cerebral blood flow in the frontal cortex (rats [3]): significantly increased
